Here are results for five compounds from publication PMC12586182 (Frontiers in Oncology, 2025).

The structures appear in SMILES notation.

One experiment deals with T1, KDR (Homo sapiens, UniProt P35968).
T1 construct: purchased Carna Biosciences
Briefly: Kinase panel profiling at 1 µmol/L (mobility shift assay, Carna). Type of experiment: biochemical. The settings on record: 1 µmol/L of BTK inhibitor.

The target of the next experiment is T2, MER (Homo sapiens, UniProt Q12866).
T2 construct: purchased Carna Biosciences
T2 sequence (Q12866 21-999): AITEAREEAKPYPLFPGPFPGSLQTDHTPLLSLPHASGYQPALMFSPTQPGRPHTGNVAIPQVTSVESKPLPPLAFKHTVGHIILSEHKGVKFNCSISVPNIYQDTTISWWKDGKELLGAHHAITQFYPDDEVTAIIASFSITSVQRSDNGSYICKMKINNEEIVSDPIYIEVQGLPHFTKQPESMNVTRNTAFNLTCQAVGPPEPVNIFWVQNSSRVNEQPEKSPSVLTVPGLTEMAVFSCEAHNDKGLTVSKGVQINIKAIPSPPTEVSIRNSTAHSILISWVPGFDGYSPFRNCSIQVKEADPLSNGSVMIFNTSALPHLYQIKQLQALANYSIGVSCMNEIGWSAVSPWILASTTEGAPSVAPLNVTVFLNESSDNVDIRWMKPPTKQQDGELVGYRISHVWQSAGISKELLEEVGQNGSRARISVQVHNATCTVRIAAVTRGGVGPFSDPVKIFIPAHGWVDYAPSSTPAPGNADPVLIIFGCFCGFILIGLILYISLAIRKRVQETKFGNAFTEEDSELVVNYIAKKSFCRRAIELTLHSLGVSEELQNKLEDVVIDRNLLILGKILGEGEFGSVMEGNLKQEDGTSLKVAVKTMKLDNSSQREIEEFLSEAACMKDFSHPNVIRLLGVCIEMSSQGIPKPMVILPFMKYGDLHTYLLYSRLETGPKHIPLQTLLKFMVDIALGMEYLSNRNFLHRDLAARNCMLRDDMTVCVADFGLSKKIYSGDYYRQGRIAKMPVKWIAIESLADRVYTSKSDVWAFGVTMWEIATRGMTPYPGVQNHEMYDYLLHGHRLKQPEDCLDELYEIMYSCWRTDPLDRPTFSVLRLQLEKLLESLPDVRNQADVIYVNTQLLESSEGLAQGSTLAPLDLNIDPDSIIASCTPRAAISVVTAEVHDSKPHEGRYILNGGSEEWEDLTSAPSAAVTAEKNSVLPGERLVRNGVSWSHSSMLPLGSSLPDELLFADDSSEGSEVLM
The description is as above. The settings on record: 1 µmol/L of BTK inhibitor. In kind it is biochemical.

In a further experiment the target is PDGFRα (Homo sapiens, UniProt P16234). Briefly: Kinase enzyme activity assay (mobility shift assay, Carna). Particulars: for Percentage inhibition of kinase enzyme activity: PDGFRα, 1 µmol/L of BTK inhibitor.
A further experiment concerns the target T3, DCAMKL2 (Homo sapiens, UniProt Q8N568).
T3 construct: purchased Carna Biosciences
T3 sequence (Q8N568 1-766): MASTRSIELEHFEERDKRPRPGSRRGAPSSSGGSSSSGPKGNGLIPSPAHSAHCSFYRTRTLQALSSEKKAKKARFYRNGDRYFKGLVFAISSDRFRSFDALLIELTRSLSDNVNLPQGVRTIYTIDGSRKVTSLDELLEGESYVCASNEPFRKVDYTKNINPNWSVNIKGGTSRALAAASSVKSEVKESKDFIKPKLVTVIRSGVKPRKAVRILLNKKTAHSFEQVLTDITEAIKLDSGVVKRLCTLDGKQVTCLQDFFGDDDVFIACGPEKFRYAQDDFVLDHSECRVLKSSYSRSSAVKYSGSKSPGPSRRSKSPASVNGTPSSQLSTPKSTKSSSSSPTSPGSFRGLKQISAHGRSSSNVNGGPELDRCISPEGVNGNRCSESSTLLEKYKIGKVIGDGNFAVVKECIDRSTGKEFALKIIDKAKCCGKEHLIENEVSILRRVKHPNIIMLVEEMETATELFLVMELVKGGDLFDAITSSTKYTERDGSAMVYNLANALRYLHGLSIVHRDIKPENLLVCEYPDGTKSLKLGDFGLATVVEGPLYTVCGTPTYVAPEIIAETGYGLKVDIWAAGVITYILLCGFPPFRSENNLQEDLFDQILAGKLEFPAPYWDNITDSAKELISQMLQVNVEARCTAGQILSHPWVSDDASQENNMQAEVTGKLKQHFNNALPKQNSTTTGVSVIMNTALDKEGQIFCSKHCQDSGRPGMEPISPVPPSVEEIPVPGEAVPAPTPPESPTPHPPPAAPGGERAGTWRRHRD
Briefly: Kinase panel profiling at 1 µmol/L (mobility shift assay, Carna). Type of experiment: biochemical. The settings on record: 1 µmol/L of BTK inhibitor.

In another experiment the target is T4, IRAK1 (Homo sapiens, UniProt P51617).
T4 construct: purchased Carna Biosciences
The description is as above. Type of experiment: biochemical. The settings on record: 1 µmol/L of BTK inhibitor.

A further experiment addresses T5, LOK (Homo sapiens, UniProt O94804).
T5 construct: purchased Carna Biosciences
The experiment is described as above. Type of experiment: biochemical. The settings on record: 1 µmol/L of BTK inhibitor.

The target in the next experiment is T6, MAPKAPK5 (Homo sapiens, UniProt Q8IW41).
T6 construct: purchased Carna Biosciences
T6 sequence (Q8IW41 1-473): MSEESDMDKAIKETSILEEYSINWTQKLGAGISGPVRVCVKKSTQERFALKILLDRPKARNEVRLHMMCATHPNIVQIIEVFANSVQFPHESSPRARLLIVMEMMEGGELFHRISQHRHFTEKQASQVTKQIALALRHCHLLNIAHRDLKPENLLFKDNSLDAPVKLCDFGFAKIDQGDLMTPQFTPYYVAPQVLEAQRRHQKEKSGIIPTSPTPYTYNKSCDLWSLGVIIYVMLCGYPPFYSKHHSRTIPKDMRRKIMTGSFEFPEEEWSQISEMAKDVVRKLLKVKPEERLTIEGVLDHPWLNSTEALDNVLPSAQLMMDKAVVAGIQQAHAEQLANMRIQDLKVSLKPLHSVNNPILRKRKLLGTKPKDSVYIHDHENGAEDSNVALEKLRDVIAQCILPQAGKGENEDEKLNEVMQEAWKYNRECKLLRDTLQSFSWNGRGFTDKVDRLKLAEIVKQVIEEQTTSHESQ
The experiment is described as above. Type of experiment: biochemical. Particulars: 1 µmol/L of BTK inhibitor.

For another experiment, the target named is T7, MSSK1 (Homo sapiens, UniProt Q9UPE1).
T7 construct: purchased Carna Biosciences
The description is as above. Type of experiment: biochemical. Particulars: 1 µmol/L of BTK inhibitor.

In a further experiment the target is T8, p38α (Homo sapiens, UniProt Q16539).
T8 construct: purchased Carna Biosciences
Described as above. In kind it is biochemical. The settings on record: 1 µmol/L of BTK inhibitor.

The target of the next experiment is T9, PKACβ (Homo sapiens, UniProt P22694).
T9 construct: purchased Carna Biosciences
The description is as above. Type of experiment: biochemical. The settings on record: 1 µmol/L of BTK inhibitor.

Another experiment addresses T10, SRPK1 (Homo sapiens, UniProt Q96SB4).
T10 construct: purchased Carna Biosciences
Described as above. Type of experiment: biochemical. Particulars: 1 µmol/L of BTK inhibitor.

A further experiment addresses T11, WNK3 (Homo sapiens, UniProt Q9BYP7).
T11 construct: purchased Carna Biosciences
Described as above. In kind it is biochemical. Particulars: 1 µmol/L of BTK inhibitor.

The next experiment concerns the target CSK (Homo sapiens, UniProt P41240). Described as above. The settings on record: for Percentage inhibition of kinase enzyme activity: CSK, 1 µmol/L of BTK inhibitor.

T8 sequence (Q16539 whole entry): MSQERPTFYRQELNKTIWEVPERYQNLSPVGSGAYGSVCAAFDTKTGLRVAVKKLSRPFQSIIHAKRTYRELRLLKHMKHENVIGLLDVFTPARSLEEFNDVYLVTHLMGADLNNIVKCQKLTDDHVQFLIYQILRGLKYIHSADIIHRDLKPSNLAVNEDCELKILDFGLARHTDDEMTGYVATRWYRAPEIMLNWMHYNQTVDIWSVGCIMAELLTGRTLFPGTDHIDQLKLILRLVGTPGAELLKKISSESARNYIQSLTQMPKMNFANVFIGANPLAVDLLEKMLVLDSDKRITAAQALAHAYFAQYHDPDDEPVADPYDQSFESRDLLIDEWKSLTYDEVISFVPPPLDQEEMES
CSK, sequence (P41240 whole entry): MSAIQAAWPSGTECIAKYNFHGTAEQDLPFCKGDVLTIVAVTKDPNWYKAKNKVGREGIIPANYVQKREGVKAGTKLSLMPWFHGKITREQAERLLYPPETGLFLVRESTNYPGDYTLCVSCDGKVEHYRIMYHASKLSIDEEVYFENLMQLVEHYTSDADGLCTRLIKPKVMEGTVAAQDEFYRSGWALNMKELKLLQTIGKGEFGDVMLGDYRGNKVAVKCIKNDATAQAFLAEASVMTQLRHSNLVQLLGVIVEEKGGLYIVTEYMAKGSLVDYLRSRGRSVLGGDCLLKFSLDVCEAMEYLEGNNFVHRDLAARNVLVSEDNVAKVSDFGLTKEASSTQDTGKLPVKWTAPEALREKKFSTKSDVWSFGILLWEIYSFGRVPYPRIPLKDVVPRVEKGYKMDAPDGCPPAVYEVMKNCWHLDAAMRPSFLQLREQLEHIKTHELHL
T11 sequence (Q9BYP7 whole entry): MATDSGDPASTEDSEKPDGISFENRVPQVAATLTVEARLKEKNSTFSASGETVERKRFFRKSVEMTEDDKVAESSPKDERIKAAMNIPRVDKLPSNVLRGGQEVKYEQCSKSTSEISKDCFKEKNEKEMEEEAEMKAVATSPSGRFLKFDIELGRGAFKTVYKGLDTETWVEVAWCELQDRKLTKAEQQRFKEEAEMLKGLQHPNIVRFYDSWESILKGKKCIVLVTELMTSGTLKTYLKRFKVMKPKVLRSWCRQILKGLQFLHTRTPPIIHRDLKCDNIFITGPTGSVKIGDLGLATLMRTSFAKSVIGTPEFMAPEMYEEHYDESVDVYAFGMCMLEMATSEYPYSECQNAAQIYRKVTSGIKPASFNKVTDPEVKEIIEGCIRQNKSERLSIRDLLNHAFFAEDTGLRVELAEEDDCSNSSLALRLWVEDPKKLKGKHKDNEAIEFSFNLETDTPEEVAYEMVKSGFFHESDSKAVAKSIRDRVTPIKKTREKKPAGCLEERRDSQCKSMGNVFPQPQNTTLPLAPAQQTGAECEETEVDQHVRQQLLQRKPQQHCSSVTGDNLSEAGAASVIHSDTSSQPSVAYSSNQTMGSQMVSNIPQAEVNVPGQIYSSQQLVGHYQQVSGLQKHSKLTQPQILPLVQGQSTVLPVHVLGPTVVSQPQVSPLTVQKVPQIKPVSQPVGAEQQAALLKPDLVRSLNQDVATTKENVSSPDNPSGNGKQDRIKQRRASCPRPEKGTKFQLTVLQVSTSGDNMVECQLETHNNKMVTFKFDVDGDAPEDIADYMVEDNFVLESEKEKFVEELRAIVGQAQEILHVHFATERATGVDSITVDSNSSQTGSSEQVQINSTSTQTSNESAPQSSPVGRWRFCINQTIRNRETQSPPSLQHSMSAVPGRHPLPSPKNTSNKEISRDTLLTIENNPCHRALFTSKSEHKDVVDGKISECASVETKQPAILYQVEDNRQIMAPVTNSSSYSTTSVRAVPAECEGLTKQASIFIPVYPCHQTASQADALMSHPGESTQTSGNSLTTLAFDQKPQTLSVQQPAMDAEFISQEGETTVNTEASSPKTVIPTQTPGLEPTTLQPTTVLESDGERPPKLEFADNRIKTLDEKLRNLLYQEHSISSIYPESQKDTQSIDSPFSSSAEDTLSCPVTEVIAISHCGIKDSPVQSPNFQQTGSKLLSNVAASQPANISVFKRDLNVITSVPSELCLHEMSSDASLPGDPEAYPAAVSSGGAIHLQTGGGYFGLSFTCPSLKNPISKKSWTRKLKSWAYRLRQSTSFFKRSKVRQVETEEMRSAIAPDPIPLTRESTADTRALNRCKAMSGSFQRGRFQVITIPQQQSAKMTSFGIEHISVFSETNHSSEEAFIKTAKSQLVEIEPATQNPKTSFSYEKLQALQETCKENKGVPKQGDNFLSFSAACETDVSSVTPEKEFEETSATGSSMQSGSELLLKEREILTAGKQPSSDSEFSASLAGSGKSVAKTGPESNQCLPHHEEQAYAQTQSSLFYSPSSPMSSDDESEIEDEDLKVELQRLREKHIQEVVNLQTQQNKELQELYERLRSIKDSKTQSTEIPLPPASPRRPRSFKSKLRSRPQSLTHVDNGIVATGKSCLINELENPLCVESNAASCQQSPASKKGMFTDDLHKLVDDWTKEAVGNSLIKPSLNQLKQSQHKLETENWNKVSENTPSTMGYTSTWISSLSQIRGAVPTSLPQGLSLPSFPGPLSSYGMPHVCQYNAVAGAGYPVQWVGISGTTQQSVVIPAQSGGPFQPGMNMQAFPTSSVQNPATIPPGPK
T7 sequence (Q9UPE1 whole entry): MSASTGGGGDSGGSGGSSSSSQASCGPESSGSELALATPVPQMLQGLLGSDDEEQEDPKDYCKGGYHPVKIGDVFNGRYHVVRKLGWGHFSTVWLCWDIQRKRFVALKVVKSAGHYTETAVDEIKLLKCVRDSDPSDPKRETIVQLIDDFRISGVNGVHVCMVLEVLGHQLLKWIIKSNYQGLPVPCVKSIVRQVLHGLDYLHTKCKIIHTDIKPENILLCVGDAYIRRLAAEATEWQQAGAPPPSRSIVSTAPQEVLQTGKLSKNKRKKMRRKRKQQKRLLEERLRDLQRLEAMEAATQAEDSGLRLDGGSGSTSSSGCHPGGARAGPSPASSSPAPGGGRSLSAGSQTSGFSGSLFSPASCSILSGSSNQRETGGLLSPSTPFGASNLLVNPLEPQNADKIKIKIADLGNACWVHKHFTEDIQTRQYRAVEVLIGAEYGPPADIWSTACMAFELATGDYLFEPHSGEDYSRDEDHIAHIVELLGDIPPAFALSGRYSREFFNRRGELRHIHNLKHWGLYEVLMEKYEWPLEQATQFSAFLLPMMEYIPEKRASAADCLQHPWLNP
T10 sequence (Q96SB4 whole entry): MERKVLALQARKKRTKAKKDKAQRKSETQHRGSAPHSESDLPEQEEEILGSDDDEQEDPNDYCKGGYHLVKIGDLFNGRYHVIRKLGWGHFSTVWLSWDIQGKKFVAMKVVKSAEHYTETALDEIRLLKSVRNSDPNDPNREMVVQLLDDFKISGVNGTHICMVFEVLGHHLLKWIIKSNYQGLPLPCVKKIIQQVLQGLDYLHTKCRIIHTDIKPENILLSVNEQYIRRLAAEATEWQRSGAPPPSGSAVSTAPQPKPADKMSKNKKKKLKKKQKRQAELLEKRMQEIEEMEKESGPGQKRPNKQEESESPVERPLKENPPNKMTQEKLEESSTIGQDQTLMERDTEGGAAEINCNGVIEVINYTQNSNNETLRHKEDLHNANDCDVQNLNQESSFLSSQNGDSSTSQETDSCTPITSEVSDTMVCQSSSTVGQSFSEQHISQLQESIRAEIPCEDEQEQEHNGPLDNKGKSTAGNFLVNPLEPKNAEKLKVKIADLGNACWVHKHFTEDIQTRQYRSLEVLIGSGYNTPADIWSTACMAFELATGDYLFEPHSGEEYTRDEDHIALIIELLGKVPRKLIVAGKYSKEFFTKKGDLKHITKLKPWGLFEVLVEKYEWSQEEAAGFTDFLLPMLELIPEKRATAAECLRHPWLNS
T5 sequence (O94804 whole entry): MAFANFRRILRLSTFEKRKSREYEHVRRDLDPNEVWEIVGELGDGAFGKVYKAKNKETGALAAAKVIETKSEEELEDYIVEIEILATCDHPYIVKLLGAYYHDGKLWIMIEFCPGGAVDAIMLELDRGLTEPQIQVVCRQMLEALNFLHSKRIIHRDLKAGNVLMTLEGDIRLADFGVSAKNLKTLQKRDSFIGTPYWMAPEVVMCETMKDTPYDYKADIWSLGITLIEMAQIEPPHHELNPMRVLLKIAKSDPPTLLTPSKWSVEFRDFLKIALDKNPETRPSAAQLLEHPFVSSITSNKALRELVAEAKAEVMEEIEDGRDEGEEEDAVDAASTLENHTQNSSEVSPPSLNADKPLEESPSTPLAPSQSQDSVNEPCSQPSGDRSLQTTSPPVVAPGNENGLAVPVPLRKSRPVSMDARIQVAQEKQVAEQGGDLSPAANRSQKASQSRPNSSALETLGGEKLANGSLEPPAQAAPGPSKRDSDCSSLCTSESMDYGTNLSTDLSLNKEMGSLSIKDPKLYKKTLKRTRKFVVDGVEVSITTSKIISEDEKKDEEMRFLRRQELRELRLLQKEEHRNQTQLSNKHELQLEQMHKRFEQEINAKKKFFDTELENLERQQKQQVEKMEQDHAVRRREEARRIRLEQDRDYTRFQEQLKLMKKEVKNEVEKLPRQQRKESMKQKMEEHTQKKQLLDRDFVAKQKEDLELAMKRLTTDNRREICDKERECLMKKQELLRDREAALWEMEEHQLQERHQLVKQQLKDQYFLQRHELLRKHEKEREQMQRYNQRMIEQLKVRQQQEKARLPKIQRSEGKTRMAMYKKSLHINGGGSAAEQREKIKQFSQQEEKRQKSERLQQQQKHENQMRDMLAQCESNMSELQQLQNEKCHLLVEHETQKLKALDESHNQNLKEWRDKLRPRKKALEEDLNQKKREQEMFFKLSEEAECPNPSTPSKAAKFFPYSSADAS

In the case of `C=CC(=O)N1CCC([C@@H]2CCNc3c(C(N)=O)c(-c4ccc(Oc5ccccc5)cc4)nn32)CC1` [zanubrutinib], the “Percentage inhibition of kinase enzyme activity” value (“Percentage inhibition” below) on KDR was -4.47%; at MER, -2.35%; on PDGFRα, 3.66%.

Regarding `CC#CC(=O)N1CCC[C@H]1c1nc(-c2ccc(C(=O)Nc3ccccn3)cc2)c2c(N)nccn12` [acalabrutinib], the “Percentage inhibition” value is 6.81% at KDR; -3.37% on MER; 4.63% on DCAMKL2; -7.06% on IRAK1; 3.37% on LOK; -1.87% on MAPKAPK5. Also, the “Percentage inhibition” value is on record as -4.86% on MSSK1; -0.75% on p38α; -13.09% at PKACβ; -4.73% at SRPK1; -0.26% on WNK3; 1.38% at PDGFRα. Further, at CSK, the “Percentage inhibition” value is on record as 6.97%.

For `COc1ccc(F)cc1C(=O)NCc1ccc(-c2nn([C@@H](C)C(F)(F)F)c(N)c2C(N)=O)cc1` [pirtobrutinib], the “Percentage inhibition” value is on record as -1.66% at KDR; -2.75% on MER; 0.08% on DCAMKL2; -6.46% at IRAK1; -1.51% on LOK; -1.10% at MAPKAPK5. Also, the “Percentage inhibition” value on MSSK1 is given as -8.63%; at p38α, -2.18%; at PKACβ, -8.02%; at SRPK1, 8.97%; at WNK3, 2.54%; at PDGFRα, 3.06%. Besides, on CSK, the “Percentage inhibition” value is 79.14%. Further, the inhibition (usually the share of the control response that was lost under treatment) at 1 µM on CSK (read-out: Inhibition of CSK) is > 75%.

Take `O=C(c1ccc(Oc2ccccc2)cc1Cl)c1c[nH]c2ncnc(N[C@@H]3CC[C@@H](CO)OC3)c12` [nemtabrutinib]: the “Percentage inhibition” value at KDR is listed as 80.64%; on MER, 29.53%; at DCAMKL2, -1.82%; at IRAK1 it was -0.39%; at LOK, 83.97%; on MAPKAPK5 it was -2.46%. For the same compound, the “Percentage inhibition” value on MSSK1 is reported as -0.95%; on p38α it was 2.09%; on PKACβ, 12.59%; at SRPK1, 6.73%; at WNK3 it was 52.96%; on PDGFRα, 88.08%. The “Percentage inhibition” value at CSK is reported as 98.66%. For the same compound, the IC50 (commonly the concentration at which inhibition is half-maximal) at PDGFRα is 12.4 nM.

As for `C=CC(=O)N1CCC[C@@H](n2nc(-c3ccc(Oc4ccccc4)cc3)c3c(N)ncnc32)C1` [ibrutinib], the “Percentage inhibition” value is 83.54% at KDR; -9.45% at DCAMKL2; -10.80% on IRAK1; 24.15% at LOK; -2.44% on MAPKAPK5; 1.54% at MSSK1. Besides, the “Percentage inhibition” value on p38α is reported as -2.71%; at PKACβ, -9.04%; at SRPK1, 1.20%; at WNK3 it was 6.84%; at PDGFRα, 94.28%.
